Data taken from EP4631938A1, “NITROGEN-CONTAINING HETEROCYCLE WITH SEROTONIN RECEPTOR-BINDING ACTIVITY AND CARBOCYCLIC DERIVATIVE” (Shionogi & Co., Ltd, priority 2022, dated 2024).
Like-named read-outs stand apart in the source and are kept apart here.

What was measured:
[1] = target: T1, human recombinant 5-HT2C receptor (Homo sapiens, UniProt P28335); experiment: Test Example 2: 5-HT2C receptor binding inhibition test ([3H]-Mesulergine; non-specific ligand Serotonin HCl)
T1 construct: expressed in transfected cells; host or cells: Jump-In HEK cells (membrane preparation)
T1 sequence (P28335 33-458): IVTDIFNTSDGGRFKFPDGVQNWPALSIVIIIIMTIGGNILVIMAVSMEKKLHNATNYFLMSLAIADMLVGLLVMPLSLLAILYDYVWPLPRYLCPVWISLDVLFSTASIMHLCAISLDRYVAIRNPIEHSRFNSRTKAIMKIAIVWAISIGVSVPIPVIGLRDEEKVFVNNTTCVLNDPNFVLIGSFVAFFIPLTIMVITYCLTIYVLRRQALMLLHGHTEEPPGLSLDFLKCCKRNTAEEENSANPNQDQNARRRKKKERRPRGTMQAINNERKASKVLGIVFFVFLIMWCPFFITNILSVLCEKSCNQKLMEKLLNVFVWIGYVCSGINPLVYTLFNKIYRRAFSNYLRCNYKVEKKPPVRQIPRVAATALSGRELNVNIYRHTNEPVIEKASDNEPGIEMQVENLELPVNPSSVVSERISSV
Procedure, shortened: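 Ki values come from dose-response curves of [3H]-mesulergine displacement from human 5-HT2C membranes after 2 h at 37°C, scored by scintillation counting of filter-bound radioactivity. Serotonin HCl (500 µmol/L) set non-specific binding; Kd per membrane lot was taken from Scatchard plots.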

[2] = target: T2, human recombinant 5-HT2A receptor (Homo sapiens, UniProt P28223); experiment: Test Example 1-2: 5-HT2A receptor binding inhibition test ([3H]-Ketanserin; non-specific ligand Ketanserin)
T2 construct: expressed in transfected cells; host or cells: Jump-In HEK cells (membrane preparation)
T2 sequence (P28223 whole entry): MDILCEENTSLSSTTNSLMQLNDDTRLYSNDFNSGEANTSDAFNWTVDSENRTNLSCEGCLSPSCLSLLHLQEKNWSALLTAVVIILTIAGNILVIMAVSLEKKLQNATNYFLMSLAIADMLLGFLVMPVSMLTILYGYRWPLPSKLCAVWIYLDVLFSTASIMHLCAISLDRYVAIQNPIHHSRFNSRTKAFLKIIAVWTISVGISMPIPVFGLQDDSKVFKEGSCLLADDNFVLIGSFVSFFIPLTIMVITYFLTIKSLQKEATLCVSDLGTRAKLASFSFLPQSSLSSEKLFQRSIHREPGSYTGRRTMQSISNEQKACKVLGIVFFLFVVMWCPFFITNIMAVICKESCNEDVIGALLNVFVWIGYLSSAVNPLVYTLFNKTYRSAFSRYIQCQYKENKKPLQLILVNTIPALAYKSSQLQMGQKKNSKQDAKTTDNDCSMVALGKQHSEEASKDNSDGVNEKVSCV
Procedure, shortened: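 Ki values were derived from dose-response inhibition of [3H]-ketanserin binding; nonspecific binding was set with 500 µmol/L ketanserin, and Kd was set for each membrane lot from Scatchard saturation plots. Incubation lasted 1.5 h at room temperature (25 °C). Bound radioligand was harvested on Tris-HCl (pH 7.4)-presoaked filters and counted.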

[3] = human serotonin 5-HT2C receptor binding activity
[4] = [3H]-Ketanserin, non-specific binding with 500 µmol/L Ketanserin, room temperature (25°C), 1.5 hours, read-out: h 5-HT2A Ki
[5] = [3H]-Mesulergine, non-specific binding with 500 µmol/L Serotonin HCl, 37°C, 2 hours

Ki [1, 3]	Ki [2, 4]	SMILES	Ki [1, 5]	Ki [2]
1.9 nM	1.49 nM	COCc1nc(C)c(-c2cc(Nc3ncc(OC(F)(F)F)cc3Cl)ncc2OCCO)c(C)n1 [Compound I-200]		
		Cn1ncc(Br)c1-c1cc(Nc2ncc(C(F)(F)F)cc2F)ccc1OCCO [Compound I-006]	0.223 nM	0.253 nM
	0.271 nM	Cn1ncc(F)c1-c1cc(Nc2ncc(C(F)(F)F)cc2F)cnc1OCCO [Compound I-127]		
1.62 nM	1.74 nM	COCc1nc(C)c(-c2nc(Nc3ccc(C(F)(F)F)c(C)n3)c(F)cc2OCCO)c(C)n1 [Compound I-247]		
	0.338 nM	Cc1cnn(C)c1-c1cc(Nc2ncc(C(F)(F)F)cc2F)ccc1OCCO [Compound I-008]	1.05 nM	
1.51 nM	2.43 nM	Cc1nc(CO[C@@H]2CCOC2)nc(C)c1-c1cc(Nc2ncc(C(F)(F)F)cc2Cl)ncc1OCCO [Compound I-378]		
2.74 nM	2.24 nM	Cc1nc(COC2COC2)nc(C)c1-c1cc(Nc2ncc(C(F)(F)F)cc2Cl)ncc1OCCO [Compound I-376]		
